Laboratory results from US11845919B2, “Blood culture system with low media volume” (BECTON, DICKINSON AND COMPANY, priority 2015, dated 2023).

system: antibiotic/microorganism combinations; test: TTD tests per antibiotic, Low Volume/Low Ratio vs PlusAer control; format: cell-based; conditions: drug amount at peak serum level in 7 ml of blood
Protocol: The performance of 1:1 blood-to-broth ratio in the presence of an inhibitory antibiotic was tested in comparison to a standard diluted blood-to-broth ratio at least 1:3. Two different sample preparations for the 1:1 blood-to-broth ratio are described below.
FIG. 3A illustrates a low volume/low ratio preparation that is prepared in a 30 ml vial with the resin and lytic media disposed in separate chambers. The preparation contained resin and 8 ml total lytic media. The sensor in the container was a solid-state fluorescent 02 sensor. The fluorescent signal changes were used to determine microorganism growth. […] The low volume/low ratio preparation provided a 1:1 blood-to-broth ratio. The total 8 ml lytic media were separated into two parts. One part of the lytic media was in the 30 ml bottle with resin and the other part of the lytic media was in a separate device and the media therein was added under sterile conditions into the 30 ml bottle at the time the bottle was inoculated with both the blood sample and the microorganisms.
FIG. 3B illustrates the second sample preparation identified as “PlusLytic”. The PlusLytic preparation uses the BACTEC Plus Aerobic product that is commercially available, which is 30 ml of media in the 80 ml bottle. At the time of testing, 8 ml of blood, a predetermined amount of antibiotic, 10-100 CFU's of microorganisms, and an additional 20 mg of saponin were combined with the 30 ml of media in the bottle. […] The control test sample preparation is depicted in FIG. 3C and identified as “PlusAer”. The PlusAer preparation uses the commercially available BACTEC Plus Aerobic product without any additional media components. At the time of testing, 8 ml of blood, a predetermined amount of antibiotic and 10-100 CFU's of microorganisms are combined with the contents of the BACTEC Plus Aerobic product.
Each sample preparation was tested with 64 antibiotic/microorganism combinations. The antibiotics tested were Gentamicin, Amoxicillin-Clavulanate, Aztreonam, Ceftriaxone, Cefepime, Imipenem, Meropenem, Piperacillin-Tazobactam, Vancomycin, Tigecycline, Ciprofloxacin, Tetracycline, Fluconazole. The drug quantity inoculated into each test bottle was equivalent to the drug amount at its peak serum level in 7 ml of blood. These antibiotics were combined with certain microorganisms that they generally treat. For example, Amoxicillin-Clavulanate was combined with S. aureus, E. coli, and E. faecalis. Each sample was tested for both TTD and recovery of the microorganism in the presence of drugs.
The media was inoculated with blood sample, antibiotics and saponin a few minutes apart from each other.

Row | Molecule | TTD of the Low Volume/Low Ratio preparation as compared to the PlusAer preparation
1 | CO/N=C(\C(=O)N[C@@H]1C(=O)N2C(C(=O)O)=C(CSc3nc(=O)c(=O)[nH]n3C)CS[C@H]12)c1csc(N)n1 [Ceftriaxone] | faster TTD
2 | C[C@@H](O)[C@H]1C(=O)N2C(C(=O)O)=C(S[C@@H]3CN[C@H](C(=O)N(C)C)C3)[C@H](C)[C@H]12 [Meropenem] | faster TTD
3 | CN[C@H](CC(C)C)C(=O)N[C@H]1C(=O)N[C@@H](CC(N)=O)C(=O)N[C@H]2C(=O)N[C@H]3C(=O)N[C@H](C(=O)N[C@H](C(=O)O)c4cc(O)cc(O)c4-c4cc3ccc4O)[C@H](O)c3ccc(c(Cl)c3)Oc3cc2cc(c3O[C@@H]2O[C@H](CO)[C@@H](O)[C@H](O)[C@H]2O[C@H]2C[C@](C)(N)[C@H](O)[C@H](C)O2)Oc2ccc(cc2Cl)[C@H]1O [Vancomycin] | faster TTD
4 | Amoxicillin-Clavulanate [Amoxicillin/clavulanic acid] | faster TTD
5 | Gentamicin | slower TTD
